Measured values: patent US20180271930A1, “METHOD FOR RAISING POULTRY” (priority 2015, published 2018)

What was measured:
[1] = tested on: myostatin; assay: Examination 1: myostatin gene expression in superficial pectoral muscle (real-time PCR, relative to RPS9); type: in vivo, broiler chicks of the Chunky breed (Ross 308); conditions: 3 days old, GSSG addition group (0.01% or 0.1% feed), FIG. 1C, n=6
From the text: (§1) FIGS. 1A to 1D illustrate graphs showing the expression of genes related to skeletal muscle cell differentiation in superficial pectoral muscles upon administration of each feed composition in Examination 1 (n=6). […] A relative value of the expression level of each factor is expressed as an average±standard deviation of values obtained by dividing the expression levels of each factor by the expression level of RPS9. Each different symbol denotes a significant difference in the […] multiple comparison test (P<0.05). Newly hatched broiler chicks of the Chunky breed (Ross 308, Ross Breeders Ltd.) were tested. […] Real-time PCR was performed by adding cDNA, a primer set, and other necessary reagents to wells of a 96-well PCR plate, preheating the plate using a thermal cycler at 95° C. for 3 minutes, followed by 35 cycles of steps of denaturation, annealing, and elongation in a repetitive manner, and measurement of […] after the elongation step for each cycle. The expression level of each gene was designated as a relative value obtained by dividing the determined amount of an amplification product of IGF-I, myostatin, MyoD, or myogenin by the amount of an amplification product of RPS9. […] The amount of GSSG used herein was determined in terms of the amount of free oxidized glutathione. […]

[2] = tested on: myogenin; assay: Examination 1: myogenin gene expression in superficial pectoral muscle (real-time PCR, relative to RPS9); type: in vivo, broiler chicks of the Chunky breed (Ross 308); conditions: 3 days old, GSSG addition group (0.01% or 0.1% feed), FIG. 1B, n=6
From the text: as §1

[3] = tested on: Pax7; assay: Examination 3: Pax7 expression in skeletal muscle cells in differentiation medium; type: cell-based, broiler chicks (Ross 308); conditions: 100 μM GSSG in differentiation medium; 12 hours after start of culture; FIG. 2D, n=6
From the text: FIGS. 2A to 2D illustrate graphs showing the expression levels of genes related to skeletal muscle cell differentiation upon the addition of GSSG during the skeletal muscle cell differentiation period in Examination 3 (n=6). […] A relative value of the expression level of each factor is expressed as an average±standard deviation of values obtained by dividing the expression levels of each factor by the expression level of RPS9. Each different symbol denotes a significant difference in the […] multiple comparison test (P<0.05). Oxidized glutathione (GSSG) was added to a differentiation-promoting culture medium system of skeletal muscle cells collected from newly hatched broiler chicks (Ross 308, Ross Breeders Ltd.) (under culture conditions simulating the state of skeletal muscle cells of neonatal chicks), phosphorylation of signal factors was analyzed by Western blot, and the differentiation inhibition mechanism was investigated. Expression levels of MyoD, myostatin, IGF-I, and Pax7 as genes involved in myogenesis were determined. Pax7 is a muscle satellite cell marker. […] The expression level of Pax7 was determined by the method described in Examination 1 except that the primer set used herein was a primer set listed in the table below. […] The cells were recovered 0, 12, and 24 hours later, and the expression levels of genes involved in myogenesis were determined. […]

[4] = tested on: myogenin; assay: Examination 4: myogenin gene expression in superficial pectoral muscle at 3 days old; type: in vivo, broiler chicks; conditions: 0.01% by mass additive in feed for 3 days, FIG. 3A, n=4
Experimental: FIGS. 3A to 3C illustrate graphs showing the expression of genes related to skeletal muscle cell differentiation in superficial pectoral muscles upon administration of each feed composition in Examination 4 (n=4). […] A relative value of the expression level of each factor is expressed as an average±standard deviation of values obtained by dividing the expression levels of each factor by the expression level of RPS9. Newly hatched broiler chicks (Ross Breeders Ltd.) were tested. A control group (=additive-free group), a GSSG addition group (0.01% by mass), and a GSH addition group (0.01% by mass) each consisting of 5 males and 5 females were set and fed with a feed composition for 3 days. […] At this timing, 2 males and 2 females in each group were slaughtered to collect blood and skeletal muscles. The gene expression levels of the MyoD family (myogenin, myostatin, and Pax7) were observed. […] Statistics were analyzed using a mixed model in consideration of a gender difference and an interaction between males and females. A method for determining gene expressions of the above factors in skeletal muscles is described above. An ammonium salt was used as oxidized glutathione (GSSG). The GSSG contained 95.6% by mass of oxidized glutathione, and the content of reduced glutathione mixed therein was 0.1% by mass or less. […]

## oxidized glutathione [GSSG]
[1]
  myostatin expression level vs control group: significant decreases
[2]
  myogenin expression level vs control group: significant decreases
[3]
  expression of Pax7 vs control group: significantly increased
[4]
  myogenin expression level vs control group: significantly decreased
